Data as given in patent US4178450A, “2,5-Dimethyl-benzo(b) thiene (3,2-f) morphan and precursor thereof” (priority 1977, dated 1979).

Columns and labels:
[1] = Acute toxicity (LD50, Litchfield-Wilcoxon test, intraperitoneal); parameters: species or system I.C.R. Swiss albino mice; details: mouse, in vivo, ip, mice, deaths noted 48 hours after treatment
Description: A--ACUTE TOXICITY Acute toxicity studies have been made in I.C.R. Swiss albino mice of both sexes of a weight of 30±2 g, kept without food for 24 hours prior to the experiment. Ambient temperature and relative humidity were held constant. The products were administered intraperitoneally, with the number of deaths noted 48 hours from the moment of treatment. Calculation of the lethal dose 50 (LD50) was made by the Litchfield-Wilcoxon test.

I.C.R. Swiss albino mice [2] = experiment: Chemical analgesia, acetic acid writhing technique; assay type: in vivo; details: for No. of writhes: 30 min before acetic acid, noted 20 min after, x ± S.E.M.; for analgesic activity compared with dextropropoxyphene (in words): acetic acid writhing, i.p.
Description: 2. Chemical analgesia The analgesic effect has been studied in I.C.R. Swiss albino mice, employing the acetic acid writhing technique. Batches of 10 mice were made.
The products studied were administered intraperitoneally, and after 30 minutes the mice were injected intraperitoneally with 0.25 ml of 1% acetic acid. A batch of control animals received only the acetic acid. Note was made of the number of writhes in each mouse 20 minutes following injection of the acetic acid.

I.C.R. Swiss albino mice [3] = experiment: Thermal analgesia, 55° C. "hot plate" technique; assay type: in vivo; details: for Jumping time: 30 min before 55° C. hot plate, x ± S.E.M.; for thermal analgesic activity (in words): hot plate, i.p.
Description: The thermal analgesic effect has been studied in I.C.R. Swiss albino mice. The 55° C. "hot plate" technique was used. Batches of 10 mice were made. The products in study were administered intraperitoneally and after 30 minutes the mice were placed on the hot plate and note was made, in seconds, of the time it took them to jump. Batches were made of control animals injected only with distilled water.

[4] = 30 mg/kg i.p., control 122.1 ± 9.15
[5] = 25 mg/kg i.p., control 30.9 ± 5.016
[6] = 25 mg/kg i.p., control 109.9 ± 6.362
[7] = 50 mg/kg i.p., control 48.8 ± 5.033

Compound | LD50 at 48 h [1] | No. of writhes (I.C.R. Swiss albino mice [2]; [4]) | analgesic activity compared with dextropropoxyphene (in words) (I.C.R. Swiss albino mice [2]) | Jumping time (I.C.R. Swiss albino mice [3]; [5]) | thermal analgesic activity (in words) (I.C.R. Swiss albino mice [3]) | No. of writhes (I.C.R. Swiss albino mice [2]; [6]) | Jumping time (I.C.R. Swiss albino mice [3]; [7])
CN1CCC2(C)CC1Cc1sc3ccccc3c12 (racemic) [Product I, 2,5-dimethyl-benzo[b]thiene[3,2-f]morphan] | 90.8 mg/kg | 44.3 ± 6.14 | has analgesic activity, but of lesser intensity than that of dextropropoxyphene | 48.9 ± 8.956 s | lacks any thermal analgesic activity | – | –
CCC(=O)O[C@](Cc1ccccc1)(c1ccccc1)[C@H](C)CN(C)C [Dextropropoxyphene, dextropropoxyphene, reference compound] | – | 24 ± 6.03 | – | 70.8 ± 13.592 s | – | 27.8 ± 8.365 | 91.3 ± 7.894 s
CC1=CCN(C)C(Cc2cc3ccccc3s2)C1 (centres unmarked) [Product II, 2-(2-benzo[b]thienylmethyl)-1,4-dimethyl-1,2,3,6-tetrahydropyridine] | 916 mg/kg | – | not significantly different from that of dextropropoxyphene | – | lacks any thermal analgesic activity | 41.2 ± 6.024 | 63 ± 8.368 s
